From publication PMC6560211, “ApoAI-derived peptide increases glucose tolerance and prevents formation of atherosclerosis in mice” (Diabetologia, 2019)
No end group written: not given here.

Tested on: Apoe−/− mice
Test: Atherosclerosis model, western diet
Format: in vivo, mouse
Details: female Apoe−/− mice, i.p. three times a week for 6 weeks, RG54 12 mg/kg, ApoA-I 14 mg/kg, liraglutide 0.3 mg/kg, Oil Red O, n=9, vs NaCl
Description: Female Apoe^−/− mice (002052, Jackson Laboratory, Bar Harbor, ME, USA) at 12 weeks of age were acclimatised for 1 week, then changed to the RD western diet (D12079B) and injected i.p. three times per week for 6 weeks with treatments as indicated in ESM Fig. 1. At the end of the experimental period, the mice were euthanised and whole aortas were collected, fixed and stained for analysis. See ESM Methods for more details.
Apoe^−/− mice, which develop aortic atherosclerosis, were used to test if RG54 reduces the formation of atherosclerotic plaques in vivo. Apoe^−/− mice were obtained at 12 weeks of age and acclimatised for 1 week, after which baseline body weights, dual-energy x-ray absorptiometry body scans and serum samples were collected. […] Serum lipid profiles were measured at the start and end of the experimental period (ESM Fig. 5).
Fig. 2 Effect of ApoA-I or RG54 treatment on early, low-burden atherosclerotic lesion development in Apoe^−/− mice. […] (a) Body weight was measured weekly (n=9). […] (d–f) After euthanasia the aortic arch and abdominal aorta were removed, fixed and prepared en face, then atherosclerotic plaques were stained using Oil Red O. Representative aorta images (d) shown as raw images and images analysed for Oil Red O stained areas. […] Stained areas were then quantified to give the total plaque area (e) and total plaques per aorta (f) (n=9). […]

## Ac-AEYHAKATEHLSTLSEKAKPALEDLRQGLLPVLESFKVSFLSALEEYTKKLNTQ [RG54]
  number of plaques per mouse: significantly reduced
  total plaque area (percentage of the aortic surface): significantly reduced
